{"source": "patent US12194024B2", "about": "“Pharmaceutical composition of MDM2 inhibitor and use thereof for preventing and/or treating disease” (ASCENTAGE PHARMA (SUZHOU) CO., LTD., priority 2019, dated 2025)", "key": {"[1]": {"test_system": "human OCI-AML-3 AML xenograft tumor", "experiment": "Subcutaneous OCI-AML-3 AML mouse xenograft tumor model", "type": "in vivo, NOD SCID mice", "details": "Compound 2 50 mg/kg orally q2d, Azacitidine 2 mg/kg i.v., Decitabine 1 mg/kg i.v.; for Relative tumor volume (RTV, Mean ± SEM): d15, vehicle 16.5 ± 4.1", "method": "For subcutaneous model, OCI-AML-3 cells (1×10^6) are injected subcutaneously into the right side of the abdomen of 6- to 8-week-old mice. About 10 days after the cell inoculation, the mice are randomly divided into groups based on the primary tumor size achieving about 100-150 mm^3 of average tumor volume.\nThe tumor diameter is measured twice using a vernier caliper each week. The computational formula of the tumor volume (TV) is: TV=a×b^2/2. In the computational formula, a and b represent the length and width of the tumor measurement respectively. The computational formula of the relative tumor volume (RTV) is: RTV=VtN1. In the computational formula, V1 is the tumor volume when being grouped and administered, and Vt is the tumor volume when being measured at a certain day after the administration.\nThe tumor remission rate (%) is derived by dividing the number of SD (Stable Disease), PR (Partial response) and CR (Complete response) appearing in the tumor bearing mice after treatment by the total number of mice in the group×100%.\nThe synergistic analysis uses the following formula (reference can be made to Gould S E et al., Translational value of mouse models in oncology drug development, Nature medicine, 2015 21, 431-439): synergistic factor=((A/C)×(B/C))/(AB/C); A=RTV value of the A drug alone group; B=RTV value of the B drug alone group; C=RTV value of the vehicle control group, AB=RTV value of the AB combined group (Clarke R., Issues in experimental design and endpoint analysis in the study of experimental cytotoxic agents in vivo in breast cancer and other models[J], Breast Cancer Research & Treatment, 1997, 46 (2-3):255-278).\nFor subcutaneous model, OCI-AML-3 cells (1×10^6) are injected subcutaneously into the right side of the abdomen of 6- to 8-week-old mice. About 10 days after the cell inoculation, the mice are randomly divided into groups based on the primary tumor size achieving about 100-150 mm^3 of average tumor volume. Compound 2 is administered alone or in combination (50 mg/kg, is taken orally, every other day for 15 days) and Aza (2 mg/kg, intravenous injection each day for 7 days) or Dec (1 mg/kg, intravenous injection each day for 7 days). The tumor volume is measured twice using a vernier caliper each week and is represented by following formula in mm^3: V=0.5a×b^2; in the formula, a and b are the long diameter and short diameter of the tumor respectively. […] RTV=VtN1; wherein V1 and Vt are the average tumor volume on the first day (day 1) in the treatment, and the average tumor volume of a certain time point (day t) respectively.\nAzacitidine is administered following 2 mg/kg, caudal vein injection, qd×7d, drug withdrawal 7 days, then qd×2 day regimens for seven days (corresponding to the number 68 regimen in table 7)."}, "[2]": {"test_system": "MOLM-13 cells", "experiment": "Expression of proteins in treated MOLM-13 cells", "type": "cell-based, human", "details": "for γ-H2AX expression (DNA damage): MOLM-13 cells", "excerpt": "Therefore, we evaluate the protein changes involving these identified signaling pathways. […] DEC and AZA are low methylation drugs inducing low DNA methylation in cells by inhibiting the function of methyltransferase I (DNMT1). Many studies indicate that DNMT1 forms a complex with UHRF1 and HDAC1 proteins in tumor cells, which binds and inhibits the expression of various […] (such as P16INK4A, P14ARF and P21) promoters, and promotes tumor growth. Cytarabine is a pyrimidine nucleoside analogue, which induces DNA damage, further activates ATM/ATR-P53-P21 signal cascades, inhibits DNA synthesis in cells and interferes with cell proliferation.\nBased on above evidences, we further detect the regulating effect of treatment with compound 2 in combination with low methylation drugs DEC and AZA or drug Ara-C on P53, demethylation marker protein DNMT1 and common target protein P21, and the expression of apoptosis marker protein, lytic PARP-1. […] RG-7388 is introduced as the comparison of present experiment. […] DNA damage further activates P53 and P21.\nB-actin is used for confirming that the loaded proteins are the same. […] Its results represent three independent results."}, "[3]": {"test_system": "human MOLM-13 (AML) xenograft tumor", "experiment": "Systemic MOLM-13 AML mouse xenograft model", "type": "in vivo, NOD SCID mice", "details": "Compound 2 30 mg/kg q2d 21 days, Azacitidine 1.5 mg/kg qd seven days", "excerpt": "The comparison among three or more groups uses one-way ANOVA. If the F value has a significant difference, multiple comparisons should be carried out after the ANOVA analysis. All data analysis uses SPSS 18.0. Prism (the sixth version) is used for graphing. Attune N×T flow cytometer (Thermo Fisher Scientific Inc.) is used for analyzing tumor infiltrating lymphocytes. Data acquisition and analysis use Analyst Software 1.6.3 work station (AB sciex, Ontario, Canada). For MOLM-13 systemic model, the death date of the last mouse is used for analyzing the median total survival and generating the Kaplan-Meier curve. Logarithmic rank test and Bonferroni multiple test are used for comparing the survival curves of different treatment groups.\nFor systemic AML model, six- to eight-week-old female NOD SCID mice are pretreated with cyclophosphamide (150 mg/kg, intraperitoneally) continuously for two days. Then the MOLM-13 systemic AML xenograft model is established by inoculating 1×10^7 cells into the caudal vein intravenously.\nFor systemic AML model, the six- to eight-week-old female NOD SCID mice are pretreated with cyclophosphamide (150 mg/kg, intraperitoneally) continuously for two days. Then the MOLM-13 systemic AML xenograft model is established by inoculating 1×10^7 cells into the caudal vein intravenously. Cells grow 3 days, then are randomly divided into groups for treatment of a single drug or drugs in combination using a carrier, compound 2 (50 mg/kg, is taken orally each day for 7 days), and Aza (1.5 mg/kg, intravenous injection each day for 7 days). In the treatment process and after the treatment is completed, the mice are monitored for the occurrence of hind leg paresis (HLP) or the abdominal swelling caused by disease progression, and a body weight loss >20%.\nA systemic MOLM-13 mouse xenograft model is established, and the anti-leukemia effect of compound 2 following the administration regimen of 80 mg/kg dosage, orally (po), and once every two days (q2d) is evaluated in the model (corresponding to the number 57 regimen in table 7). The experiment has two groups, and 15 animals in each group, in one group, 5 animals are used for the analysis of the proportion of CD45+ AML cells, and the remaining 10 animals are used for recording the living condition of the mice. 18 days after the cell inoculation, according to the experimental regimen, 5 animals are selected randomly from each group, bone marrow and spleen are collected, the proportion of human CD45+ AML cells in bone marrow and spleen is analyzed using flow cytometry to evaluate the disease burden of animals.\nSystemic tumor model is established by inoculating MOLM-13 tumor cells through caudal vein, the administration starts on the third day after the cell inoculation, and the day of the administration is defined as the first day. Compound 2 is administered following 30 mg/kg, q2d regimens for 21 days. Azacitidine is administered following 1.5 mg/kg, qd regimens for seven days (corresponding to the number 81 regimen in table 7). […]"}, "[4]": {"details": "MOLM-13, DEC 100 nM, AZA 3 μM, 48 hours"}}}
{"smiles": "Nc1ncn([C@H]2C[C@H](O)[C@@H](CO)O2)c(=O)n1", "note": "[Decitabine]", "values": [{"measurement": "T/C value (%) (d15)", "setting": "[1]", "value": 64.9, "unit": "%"}, {"measurement": "Relative tumor volume (RTV, Mean ± SEM)", "setting": "[1]", "value": "10.7 ± 1.7"}, {"measurement": "expression of DNMT1", "setting": "[2]; [4]", "value": "almost completely eliminates DNMT1"}, {"measurement": "γ-H2AX expression (DNA damage)", "setting": "[2]", "value": "increased expression of γ-H2AX"}]}
{"smiles": "Nc1ncn([C@@H]2O[C@H](CO)[C@@H](O)[C@H]2O)c(=O)n1", "note": "[Azacitidine]", "values": [{"measurement": "Median survival", "setting": "[3]; vehicle 16 days", "value": 24, "unit": "days"}, {"measurement": "Prolonged survival", "setting": "[3]; versus vehicle", "value": 8, "unit": "days"}, {"measurement": "T/C value (%) (d15)", "setting": "[1]", "value": 56.6, "unit": "%"}, {"measurement": "Relative tumor volume (RTV, Mean ± SEM)", "setting": "[1]", "value": "9.3 ± 3.2"}, {"measurement": "expression of DNMT1", "setting": "[2]; [4]", "value": "almost completely eliminates DNMT1"}, {"measurement": "γ-H2AX expression (DNA damage)", "setting": "[2]", "value": "increased expression of γ-H2AX"}]}
{"smiles": "Nc1ccn([C@@H]2O[C@H](CO)[C@@H](O)[C@@H]2O)c(=O)n1", "note": "[Cytarabine]", "values": [{"measurement": "expression of P53 and P21 proteins", "setting": "[2]; MOLM-13, compound 2 40 nM, RG-7388 40 nM, DEC 100 nM, AZA 3 μM, 48 hours", "value": "significant up-regulation effect on P21"}, {"measurement": "γ-H2AX expression (DNA damage)", "setting": "[2]", "value": "increased expression of γ-H2AX"}]}
